Laboratory results taken from patent publication US6737383B1, “Herbicidal oxadiazolidines” (priority 1999, dated 2004).

How the values were obtained:
[1] = tested on: morningglory; assay: Test B pre/postemergence morningglory; assay type: in vivo, Ipomoea hederacea; conditions: for Plant response rating, Morningglory: scale of 0 to 10 where 0 is no effect and 10 is complete control
How it was run: (§1)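 Test chemicals in a non-phytotoxic solvent mixture with surfactant were sprayed preemergence onto planted seeds and postemergence onto plants 2 to 18 cm tall (1- to 4-leaf stage). After twelve to sixteen days in a greenhouse, injury was visually rated against untreated controls from 0 (no effect) to 10 (complete control).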

[2] = tested on: pigweed; assay: Test B pre/postemergence pigweed; assay type: in vivo, Amaranthus retroflexus; conditions: for Plant response rating, Redroot pigweed: scale of 0 to 10 where 0 is no effect and 10 is complete control
How it was run: as §1

[3] = tested on: giant foxtail; assay: Test B pre/postemergence giant foxtail; assay type: in vivo, Setaria faberii
How it was run: as §1

[4] = tested on: purple nutsedge; assay: Test B pre/postemergence purple nutsedge; assay type: in vivo, Cyperus rotundus; conditions: for Plant response rating, Nutsedge: scale of 0 to 10 where 0 is no effect and 10 is complete control
How it was run: as §1

[5] = tested on: bamyardgrass; assay: Test B flood test barnyardgrass; assay type: in vivo, Echinochloa crus-galli
How it was run: (§2)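 Plants were grown to the 2-leaf stage before treatment with test chemical, then held in a greenhouse for twelve to sixteen days. Injury was visually rated against untreated controls on a 0–10 scale, where 0 is no effect and 10 is complete control.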

[6] = tested on: smallflower flatsedge; assay: Test B flood test smallflower flatsedge; assay type: in vivo, Cyperus difformis
How it was run: as §2

[7] = tested on: crabgrass; assay: Test B pre/postemergence crabgrass; assay type: in vivo, Digitaria sanguinalis
How it was run: as §1

[8] = tested on: surinam grass; assay: Test B pre/postemergence surinam grass; assay type: in vivo, Brachiaria decumbens
How it was run: as §1

[9] = tested on: rice; assay: Test B flood test rice; assay type: in vivo, Oryza sativa
How it was run: as §2

[10] = tested on: wheat; assay: Test B pre/postemergence wheat; assay type: in vivo, Triticum aestivum; conditions: for Plant response rating, Wheat: scale of 0 to 10 where 0 is no effect and 10 is complete control
How it was run: as §1

[11] = tested on: cocklebur; assay: Test B pre/postemergence cocklebur; assay type: in vivo, Xanthium strumarium
How it was run: as §1

[12] = tested on: velvetleaf; assay: Test B pre/postemergence velvetleaf; assay type: in vivo, Abutilon theophrasti; conditions: for Plant response rating, Velvetleaf: scale of 0 to 10 where 0 is no effect and 10 is complete control
How it was run: as §1

[13] = tested on: rape; assay: Test B pre/postemergence rape; assay type: in vivo, Brassica napus; conditions: for Plant response rating, Rape: scale of 0 to 10 where 0 is no effect and 10 is complete control
How it was run: as §1

[14] = tested on: wild oat; assay: Test B pre/postemergence wild oat; assay type: in vivo, Avena fatua; conditions: for Plant response rating, Wild oats: scale of 0 to 10 where 0 is no effect and 10 is complete control
How it was run: as §1

[15] = tested on: sugar beet; assay: Test B pre/postemergence sugar beet; assay type: in vivo, Beta vulgaris; conditions: for Plant response rating, Sugarbeets: scale of 0 to 10 where 0 is no effect and 10 is complete control
How it was run: as §1

[16] = tested on: blackgrass; assay: Test B pre/postemergence blackgrass; assay type: in vivo, Alopecurus myosuroides
How it was run: as §1

[17] = Postemergence, Rate 250 g/ha, scale 0 to 10
[18] = Preemergence, Rate 250 g/ha, scale 0 to 10, 0 is no effect, 10 is complete control
[19] = Preemergence, Rate 500 g/ha, scale 0 to 10, 0 is no effect, 10 is complete control
[20] = Rate 62 g/ha, Postemergence, scale 0 to 10 (0 no effect, 10 complete control)
[21] = Rate 125 g/ha, Postemergence, scale 0 to 10, 0 is no effect, 10 is complete control
[22] = Postemergence, Rate 500 g/ha, scale of 0 to 10 where 0 is no effect and 10 is complete control
[23] = Preemergence, Rate 62 g/ha, scale of 0 to 10 where 0 is no effect and 10 is complete control
[24] = Preemergence, Rate 125 g/ha, scale of 0 to 10 where 0 is no effect and 10 is complete control
[25] = Rate 62 g/ha, flood test species, Pre-emergence, visual evaluation after twelve to sixteen days
[26] = Rate 125 g/ha, under heading Pre-emergence, flood test species, visual evaluation after twelve to sixteen days
[27] = Rate 250 g/ha, Pre-emergence (flood test species), scale 0 to 10, 0 is no effect, 10 is complete control
[28] = Rate 500 g/ha, Pre-emergence, flood test species, scale 0 to 10 (0 no effect, 10 complete control)

SMILES: CC(C)N(C(=O)n1oc(=O)n(C(C)C(=O)N(C)C)c1=O)c1ccc(F)cc1 (stereo not drawn) [Compound 478]
- Morningglory plant response rating [1, 17]: 7
- Plant response rating, Morningglory ([1]; Preemergence, Rate 62 g/ha): 0
- Plant response rating, Morningglory ([1]; Preemergence, Rate 125 g/ha): 0
- Morningglory plant response rating [1, 18]: 1
- Morningglory plant response rating [1, 19]: 2
- Morningglory plant response rating [1, 20]: 3
- Morningglory plant response rating [1, 21]: 3
- Redroot pigweed plant response rating [2, 17]: 3
- Plant response rating, Redroot pigweed ([2]; Preemergence, Rate 62 g/ha): 8
- Plant response rating, Redroot pigweed ([2]; Preemergence, Rate 125 g/ha): 8
- Redroot pigweed plant response rating [2, 18]: 9
- Redroot pigweed plant response rating [2, 19]: 10
- Redroot pigweed plant response rating [2, 20]: 1
- Redroot pigweed plant response rating [2, 21]: 2
- Giant foxtail plant response rating [3, 17]: 8
- Giant foxtail plant response rating [3, 22]: 9
- Plant response rating, Giant foxtail [3, 23]: 9
- Plant response rating, Giant foxtail [3, 24]: 10
- Giant foxtail plant response rating [3, 18]: 10
- Giant foxtail plant response rating [3, 19]: 10
- Giant foxtail plant response rating [3, 20]: 3
- Giant foxtail plant response rating [3, 21]: 6
- Nutsedge plant response rating [4, 17]: 0
- Plant response rating, Nutsedge ([4]; Preemergence, Rate 62 g/ha): 0
- Plant response rating, Nutsedge ([4]; Preemergence, Rate 125 g/ha): 0
- Nutsedge plant response rating [4, 18]: 0
- Nutsedge plant response rating [4, 19]: 3
- Nutsedge plant response rating [4, 20]: 0
- Nutsedge plant response rating [4, 21]: 0
- Plant response rating, Barnyardgrass (0 to 10 scale, 0 is no effect, 10 is complete control) [5, 25]: 0
- Barnyardgrass plant response rating (0 to 10 scale, 0 is no effect, 10 is complete control) [5, 26]: 0
- Barnyardgrass plant response rating [5, 27]: 0
- Barnyardgrass plant response rating [5, 28]: 0
- Plant response rating, S. Flatsedge (0 to 10 scale, 0 is no effect, 10 is complete control) [6, 25]: 0
- S. Flatsedge plant response rating (0 to 10 scale, 0 is no effect, 10 is complete control) [6, 26]: 0
- S. Flatsedge plant response rating [6, 27]: 0
- S. Flatsedge plant response rating [6, 28]: 0
- Crabgrass plant response rating [7, 17]: 8
- Crabgrass plant response rating [7, 22]: 9
- Plant response rating, Crabgrass [7, 23]: 8
- Plant response rating, Crabgrass [7, 24]: 9
- Crabgrass plant response rating [7, 18]: 10
- Crabgrass plant response rating [7, 19]: 10
- Crabgrass plant response rating [7, 20]: 2
- Crabgrass plant response rating [7, 21]: 3
- B. signalgrass plant response rating ([8]; Postemergence, Rate 250 g/ha, scale 0 to 10, 0 no effect, 10 complete control): 5
- B. signalgrass plant response rating [8, 22]: 8
- Plant response rating, B. signalgrass [8, 23]: 4
- Plant response rating, B. signalgrass [8, 24]: 6
- B. signalgrass plant response rating [8, 18]: 9
- B. signalgrass plant response rating [8, 19]: 10
- B. signalgrass plant response rating [8, 20]: 0
- B. signalgrass plant response rating [8, 21]: 0
- Plant response rating, Rice (0 to 10 scale, 0 is no effect, 10 is complete control) [9, 25]: 0
- Rice plant response rating (0 to 10 scale, 0 is no effect, 10 is complete control) [9, 26]: 0
- Rice plant response rating [9, 27]: 0
- Rice plant response rating [9, 28]: 0
- Wheat plant response rating [10, 17]: 2
- Plant response rating, Wheat ([10]; Preemergence, Rate 62 g/ha): 0
- Plant response rating, Wheat ([10]; Preemergence, Rate 125 g/ha): 0
- Wheat plant response rating [10, 18]: 1
- Wheat plant response rating [10, 19]: 8
- Wheat plant response rating [10, 20]: 0
- Wheat plant response rating [10, 21]: 0
- Cocklebur plant response rating [11, 17]: 0
- Cocklebur plant response rating [11, 22]: 0
- Plant response rating, Cocklebur [11, 23]: 0
- Plant response rating, Cocklebur [11, 24]: 0
- Cocklebur plant response rating [11, 18]: 0
- Cocklebur plant response rating [11, 19]: 0
- Cocklebur plant response rating [11, 20]: 0
- Cocklebur plant response rating [11, 21]: 0
- Velvetleaf plant response rating [12, 17]: 0
- Plant response rating, Velvetleaf ([12]; Preemergence, Rate 62 g/ha): 0
- Plant response rating, Velvetleaf ([12]; Preemergence, Rate 125 g/ha): 1
- Velvetleaf plant response rating [12, 18]: 3
- Velvetleaf plant response rating [12, 19]: 7
- Velvetleaf plant response rating [12, 20]: 0
- Velvetleaf plant response rating [12, 21]: 0
- Rape plant response rating [13, 17]: 0
- Plant response rating, Rape ([13]; Preemergence, Rate 62 g/ha): 0
- Plant response rating, Rape ([13]; Preemergence, Rate 125 g/ha): 1
- Rape plant response rating [13, 18]: 4
- Rape plant response rating [13, 19]: 6
- Rape plant response rating [13, 20]: 0
- Rape plant response rating [13, 21]: 0
- Wild oats plant response rating [14, 17]: 0
- Plant response rating, Wild oats ([14]; Preemergence, Rate 62 g/ha): 2
- Plant response rating, Wild oats ([14]; Preemergence, Rate 125 g/ha): 7
- Wild oats plant response rating [14, 18]: 9
- Wild oats plant response rating [14, 19]: 10
- Wild oats plant response rating [14, 20]: 0
- Wild oats plant response rating [14, 21]: 0
- Sugarbeets plant response rating [15, 17]: 0
- Plant response rating, Sugarbeets ([15]; Preemergence, Rate 62 g/ha): 0
- Plant response rating, Sugarbeets ([15]; Preemergence, Rate 125 g/ha): 0
- Sugarbeets plant response rating [15, 18]: 3
- Sugarbeets plant response rating [15, 19]: 7
- Sugarbeets plant response rating [15, 20]: 0
- Sugarbeets plant response rating [15, 21]: 0
- Blackgrass plant response rating [16, 17]: 8
- Blackgrass plant response rating [16, 22]: 8
- Plant response rating, Blackgrass [16, 23]: 4
- Plant response rating, Blackgrass [16, 24]: 8
- Blackgrass plant response rating [16, 18]: 10
- Blackgrass plant response rating [16, 19]: 10
- Blackgrass plant response rating [16, 20]: 0
- Blackgrass plant response rating [16, 21]: 2
